In test [1] the test system is memapsin 2 (M2) cleavage of APP in HeLa cells. In words: APP beta-secretase site cleavage in HeLa cells co-transfected with APP and M2 (pulse-chase, immunoprecipitation, SDS-PAGE). To be noted: HeLa cells co-transfected with APP and M2, inhibitor included in the media. It counts as cell-based, human.
For test [2], the target named is T1, recombinant memapsin 2 (Homo sapiens, UniProt P56817). In words: Value. Also noted: expressed in E. coli in two different lengths, both without the transmembrane region; 15 N-terminal residues from vector pET11a (T7 protein leader) (N); made in house; host or cells: E. coli BL21 (DE3). On the procedure:
Table printed on a drawing sheet, FIG. 4A
Footnotes: [Mep2] = 0.47 µM / [Fluo. Substrate] = 29.9 µM / Buffer: Na Acetate 0.1 M, 5% DMSO, pH 4.5 at 37°C / Excitation at 350 nm / Emission at 490 nm
The patent's description of the figure: FIG. 4A is a graph of the inhibition of recombinant memapsin 2 by OM99-1.
First copying reader's note: Fit parameter (Ki) of the inhibition curve of memapsin 2 by OM99-1 plotted above the table; no unit is printed for Ki, and the plot's concentration axis is in M.
Where the first naming reader finds the target: description_of_the_figure: FIG. 4A is a graph of the inhibition of recombinant memapsin 2 by OM99-1.
Target sequence in this assay (P56817 46-457): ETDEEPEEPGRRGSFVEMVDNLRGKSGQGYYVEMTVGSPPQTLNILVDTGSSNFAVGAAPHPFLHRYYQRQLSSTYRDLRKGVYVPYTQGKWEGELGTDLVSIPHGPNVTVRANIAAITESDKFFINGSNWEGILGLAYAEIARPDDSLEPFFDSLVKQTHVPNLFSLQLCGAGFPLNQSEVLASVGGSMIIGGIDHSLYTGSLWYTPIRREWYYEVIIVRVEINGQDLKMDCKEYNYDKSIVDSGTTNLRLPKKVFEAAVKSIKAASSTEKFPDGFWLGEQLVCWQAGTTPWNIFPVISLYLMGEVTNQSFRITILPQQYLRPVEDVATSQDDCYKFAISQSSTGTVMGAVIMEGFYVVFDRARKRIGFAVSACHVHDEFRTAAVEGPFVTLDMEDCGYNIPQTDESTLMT

Test [3] deals with T1, recombinant memapsin 2. In words: Inhibition of recombinant memapsin 2, synthetic fluorogenic peptide substrate. It is filed as biochemical. The settings on record: recombinant memapsin 2, synthetic fluorogenic peptide substrate (FIG. 4A/4B).
Target sequence in this assay (P56817 46-457 limits assumed): as the sequence (P56817 46-457) above
Source text: The substrate used was a synthetic fluorogenic peptide substrate.
Test [4] concerns the target T2, M2pd (Homo sapiens, UniProt P56817).
T2 construct: 15 N-terminal residues from vector pET11a (T7 protein leader) (N, cleaved yes); made in house
The experiment in a line: Inhibition of M2pd by pepstatin A. It is filed as biochemical.

The target in test [5] is T2, M2pd. In words: Steady-state kinetics of hydrolysis of peptide substrates by M2pd. It is filed as biochemical. The settings on record: peptide substrate hydrolysed by M2pd, pH 4.0. The protocol: Incubation in 0.1M sodium acetate, pH 4.0, for 16 h at 22° C. auto-catalytically converted pro-M2pd to M2pd . For initial hydrolysis tests, two synthetic peptides were separately incubated with pro-M2pd in 0.1M Na acetate, pH 4.0 for different periods ranging from 2 to 18 h. The incubated samples were subjected to LC/MS for the identification of the hydrolytic products. For kinetic studies, the identified HPLC (Beckman System Gold) product peaks were integrated for quantitation. The Km and kcat values for presenilin 1 and Swedish APP peptides (Table 1) were measured by steady-state kinetics. The individual Km and Kcat values for APP peptide could not be measured accurately by standard methods, so its kcat/Km value was measured by competitive hydrolysis of mixed substrates against presenilin 1 peptide (Fersht, A. “Enzyme Structure and Mechanism”, 2nd Ed., W. H. Freeman and Company, New York. (1985)).

The values that follow come from patent US6545127B1, “Catalytically active recombinant memapsin and methods of use thereof” (Oklahoma Medical Research Foundation, priority 1999, dated 2003).

Non-standard residues stand in square brackets, D forms with d. Residues, ends and D or L forms follow the SMILES beside them. No end group written: not given here. *: point of attachment. Sta = CC(C)C[C@H](N)[C@@H](O)CC(=O)O; Isovaleryl = CC(C)CC(=O)*

T2 sequence (P56817 14-419 limits assumed): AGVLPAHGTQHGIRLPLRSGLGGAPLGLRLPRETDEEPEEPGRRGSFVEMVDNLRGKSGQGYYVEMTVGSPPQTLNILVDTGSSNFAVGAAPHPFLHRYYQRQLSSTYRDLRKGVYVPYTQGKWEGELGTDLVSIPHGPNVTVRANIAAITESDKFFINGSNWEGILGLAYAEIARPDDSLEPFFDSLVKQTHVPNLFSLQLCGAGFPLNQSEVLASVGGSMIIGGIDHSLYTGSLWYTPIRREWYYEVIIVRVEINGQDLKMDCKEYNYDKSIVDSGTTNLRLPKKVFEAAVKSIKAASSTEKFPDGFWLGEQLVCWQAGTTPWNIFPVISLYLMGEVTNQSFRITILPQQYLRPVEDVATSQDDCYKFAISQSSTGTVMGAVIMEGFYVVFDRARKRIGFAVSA

As for `CO/C1=C\C(C)=C\[C@@H](C)[C@@H](O)[C@@H](C)C/C(C)=C/C=C/[C@H](OC)[C@@H]([C@@H](C)[C@@H](O)[C@H](C)[C@@]2(O)C[C@@H](O)[C@H](C)[C@@H](C(C)C)O2)OC1=O` [Bafilomycin A1], in test [1], the “production of APP beta N- and beta C-fragments” value is “abolished the production of both APP fragments”.
Turning to `CC(C)C[C@H](NC(=O)[C@H](CC(N)=O)NC(=O)[C@@H](N)C(C)C)[C@@H](O)C[C@@H](C)C(=O)N[C@@H](C)C(=O)N[C@@H](CCC(=O)O)C(=O)N[C@@H](Cc1ccccc1)C(=O)O` [OM99-1, Val-Asn-Leu*Ala-Ala-Glu-Phe] (HELM PEPTIDE1{V.N.[CC(C)C[C@H](N[*:1])[C@@H](O)C[C@@H](C)C(=O)[*:2]].A.E.F}$$$$V2.0), the figures for the Ki on recombinant memapsin 2 [2] and at recombinant memapsin 2 [3] were 68.4 nM and 30 nM, respectively.
For `CC(C)CC(=O)N[C@H](C(=O)N[C@H](C(=O)N[C@@H](CC(C)C)[C@@H](O)CC(=O)N[C@@H](C)C(=O)N[C@@H](CC(C)C)[C@@H](O)CC(=O)O)C(C)C)C(C)C` [Pepstatin A] (Isovaleryl-VV[Sta]A[Sta]-OH), on M2pd [4], the 50% inhibitory concentration (IC50) is around 300000 nM.
In the case of “SEVNLDAEFR [Swedish APP peptide, SEVNL/DAEFR]”, at M2pd [5], the Km came out at 1 mM.
“SVNM/AEGD (SVNMAEGD) [presenilin 1, substrate peptide derived from the processing site of presenilin 1]”: in the test with M2pd [5], the Km came to 15.2 mM and the kcat is 0.67 s⁻¹.
